Data from patent US10266545B2, “Coumarin derivative as antiviral agent, pharmaceutical composition thereof, its preparation and use” (I-NOVA MEDICINSKA ISTRAZIVANJA D.O.O., priority 2016, dated 2019).

Tested on: replication of HIV-1 in the infected MT-4 cells (endogenous RT)
Experiment: Endogenous RT activity in culture fluid of HIV-1 infected MT-4 cells (HS-Lenti RT activity kit)
Assay type: cell-based, HIV-1 subtype B
Conditions: for inhibition at 0.1 µM: 0.0001 mM; for inhibition at 5 µM: 0.005 mM; for inhibition at 10 µM: 0.01 mM
Method: Furthermore, antiviral activity of compound 1 was studied on reverse transcriptase (RT) activity to elucidate potential mechanism of its antiviral action. This was done by using MT-4 cell line which […] with HIV-1. Source of HIV-1 culture fluid was chronically infected and producing HIV-1 subtype B cell line H9/HTLV III B.
Reverse transcriptase (RT) activity was determined: • (a) in the culture fluid of infected HIV-1 MT-4 cells at 72 hours after their infection (viral control); • (b) in the culture fluid of non-infected with HIV-1 cells at 72 hours and culturing without the addition of any substance (cell control); and • (c) in the culture fluid infected with HIV-1 MT-4 cells at 72 hours after infecting them, in which the desired concentration of the test compound 1 or the control compound 2 to the growth medium was added.
RT activity was determined according to the instructions of the producer. Separately was reported RT activity of standard recombinant reverse transcriptase (rRT), available in every kit. It was prepared 12-fold dilutions of the standard rRT. The manufacturer provides data on the amount of rRT in pg/well and pg/ml for each 12-fold dilution. The method used represents colorimetric method for non-radioactive determination of RT activity. It includes two stages: • (1) the synthesis of reverse transcript at the 3- or 24-hours incubation at 33° C. (which was determined experimentally); and • (2) quantitative determination of the resulting product.
In the synthesis of DNA using bromine deoxyuridine triphosphate (Brd UTP), which enter into the composition of the reaction mixture. It is included in the structure of the matrix/primer making up the DNA chain. Determination of incorporated Brd UTP was done by tracer-antibody Brd UTP, conjugated to the enzyme alkaline phosphatase. Followed colorimetrically determining the absorbance at A405 nm, which is proportional to the RT activity in the sample. According to the manufacturer, RT activity was considered positive when A405 values for the sample exceeded at least 2 times the values of A405 for negative control. Otherwise the sample was reported as such lacking RT activity, i.e. negative. The test was done by comparing the RT activity in the virus controls (100%) reported with viral RT activity in the wells treated with the test substance in the different concentrations in strict absence of RT activity in control cells. Percent inhibition of replication using the RT test was expressed as the difference between 100% (positive viral control without inhibitor) and % reported RT activity in the wells treated with the inhibitor (compounds 1 or 2) at various concentrations.
The measurement of RT activity is a widespread method for the quantitative determination of retroviruses replication. In the experimental set-up, primarily endogenous activity in supernatants was measured, i.e. in the culture fluid of virus infected cells and treated/untreated with inhibitor at 72 hours after cultivation.
For the control, commonly used substance with proven antiviral activity was employed; in our case, we used Kivexa, which contains 600 mg Abacavir and 300 mg of Lamivudine, which is applied in clinical practice as nucleoside inhibitor of RT. In the presence of RT inhibition in the test, it is concluded that not only the replication of the virus is inhibited, but also probably the target of the inhibitory effect is RT itself. To confirm this conclusion, it is necessary that percentage (%) of inhibition of the RT coincides with the % inhibition in the microtiter MTT assay. […] Reaction mixture supplemented with inhibitor was prepared at desired concentration for the assay, and then, to the mixture, recombinant RT was added with a known activity and concentration. After incubation, we determined whether the activity of the enzyme shall be amended (inhibited) by action of the compounds 1 or 2. […]

[1] = Human immunodeficiency virus 1, MT4, endogenous RT in culture liquid

SMILES | inhibition at 0.001 µM (Human immunodeficiency virus 1, MT4, endogenous RT in culture liquid, 0.000001 mM) | inhibition at 0.01 µM (Human immunodeficiency virus 1, MT4, endogenous RT in culture liquid, 0.00001 mM) | inhibition at 0.1 µM [1] | inhibition at 5 µM [1] | inhibition at 10 µM [1] | inhibition of HIV-1 infectivity in MT-4 cells (Table 4) | inhibition at 1 µM (Human immunodeficiency virus 1, MT4, endogenous RT in culture liquid, 0.001 mM)
O=c1oc2cc(O)cc(O)c2c(O)c1-c1coc2c1c(=O)oc1cc(O)cc(O)c12 [Compound 1, 7,9-dihydroxy-3-(4,5,7-trihydroxy-2-oxo-2H-chromene-3-yl)-4H-furo[3,2-c]chromen-4-one] | 1.3% | 50.7% | 55% | 76.6% | 89% | > 89% | –
O=c1oc2cc(O)c(O)cc2c(O)c1-c1coc2c1c(=O)oc1cc(O)c(O)cc12 [Compound 2, 7,8-dihydroxy-3-(4,6,7-trihydroxy-2-oxo-2H-chromen-3-yl)-4H-furo[3,2-c]chromen-4-one, reference compound] | – | – | 0% | 51% | 56.3% | – | 25.7%
